Reference: PubChem BioAssay AID1919017 (Molecular Pharmacology Branch, DTP, NCI, 2023)
Values joined by “and” are separate entries in the source; they are usually repeats but may differ in a detail not shown here. Equal entries are not always repeated.

Test system: SW1271 complex spheroids with HUVEC/MSC, growth, % test/control
Experiment: Anticancer human tumor SW1271 cell line growth inhibition [AhR];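 also: spheroids exposed to agents for 7 days before readout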
Details: for viability, T/C: stronger effect = lower value
Summary of the method: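 Complex tumor spheroids co-cultured with HUVEC and human MSC stroma; AhR antagonists tested in combination with standard-of-care and investigational agents. Top concentration at or near clinical Cmax (else 10 microM), half-log dilutions; growth expressed as percent test/control.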

[1] = curve of first compound, second compound 0.1 µM
[2] = curve of first compound, second compound 0.316 µM
[3] = curve of first compound, second compound 1 µM
[4] = curve of first compound, second compound 3.16 µM
[5] = curve of first compound, second compound 10 µM
[6] = second compound 0.1 µM, first compound 0.0316 µM
[7] = second compound 0.1 µM, first compound 0.1 µM
[8] = second compound 0.1 µM, first compound 0.316 µM
[9] = second compound 0.1 µM, first compound 1 µM
[10] = second compound 0.1 µM, first compound 3.16 µM
[11] = second compound 0.1 µM, first compound 10 µM
[12] = second compound 0.316 µM, first compound 0.0316 µM
[13] = second compound 0.316 µM, first compound 0.1 µM
[14] = second compound 0.316 µM, first compound 0.316 µM
[15] = second compound 0.316 µM, first compound 1 µM
[16] = second compound 0.316 µM, first compound 3.16 µM
[17] = second compound 0.316 µM, first compound 10 µM
[18] = second compound 1 µM, first compound 0.0316 µM
[19] = second compound 1 µM, first compound 0.1 µM
[20] = second compound 1 µM, first compound 0.316 µM
[21] = second compound 1 µM, first compound 1 µM
[22] = second compound 1 µM, first compound 3.16 µM
[23] = second compound 1 µM, first compound 10 µM
[24] = second compound 3.16 µM, first compound 0.0316 µM
[25] = second compound 3.16 µM, first compound 0.1 µM
[26] = second compound 3.16 µM, first compound 0.316 µM
[27] = second compound 3.16 µM, first compound 1 µM
[28] = second compound 3.16 µM, first compound 3.16 µM
[29] = second compound 3.16 µM, first compound 10 µM
[30] = second compound 10 µM, first compound 0.0316 µM
[31] = second compound 10 µM, first compound 0.1 µM
[32] = second compound 10 µM, first compound 0.316 µM
[33] = second compound 10 µM, first compound 1 µM
[34] = second compound 10 µM, first compound 3.16 µM
[35] = second compound 10 µM, first compound 10 µM

For `COc1cc(Nc2ncc3c(n2)-c2ccc(Cl)cc2C(c2c(F)cccc2OC)=NC3)ccc1C(=O)O`, the viability, T/C (compound 0.0316 µM) was 80.7% and 65.3% and 70.4%, the viability, T/C (compound 0.1 µM) was 91.2% and 67.1% and 74.3% and the viability, T/C (compound 0.316 µM) was 92.5% and 67% and 66.7%. The viability, T/C (compound 1 µM) was 83.3% and 64.7% and 68.1%, the viability, T/C (compound 3.16 µM) was 72.4% and 61.5% and 57.6% and the viability, T/C (compound 10 µM) was 43.3% and 49% and 51.4%. For the same compound, the IC50 (curve of compound) was 7.65 µM and > 10 µM.

`CC(CO)NC(=O)c1cc(-c2ccc(Cl)cc2)nn(-c2cnn(C)c2)c1=O` (stereo unspecified) was tested, and the viability, T/C (compound 0.1 µM) was 94.2% [middle of 20 runs] and the IC50 (compound alone, run of 08/08/2022) was over 10 µM.

With `CC(C)CC(NC(=O)C(Cc1ccccc1)NC(=O)c1cnccn1)B(O)O` (stereo unspecified) the viability, T/C (compound 0.000949 µM) was 97.1% and 109% and 95.8%, the viability, T/C (compound 0.003 µM) was 89.3% and 86% and 67.3% and the viability, T/C (compound 0.00949 µM) was 7.81% and 7.15% and 1.46%. The viability, T/C (compound 0.03 µM) was 0.75% and 0.78% and 0.59%, the viability, T/C (compound 0.0949 µM) was 0.47% and 0.58% and 0.43% and the viability, T/C (compound 0.3 µM) was 0.64% and 0.89% and 0.44%. For the same compound, the IC50 (curve of compound) was 0.00523 µM and 0.00507 µM and 0.00406 µM.

In the case of `COc1cc(C2c3cc4c(cc3C(OC3OC5COC(C)OC5C(O)C3O)C3COC(=O)C23)OCO4)cc(OC)c1O` (stereo unspecified) + Cc1cncc(-c2nc(NCCc3c[nH]c4ccccc34)c3ncn(C(C)C)c3n2)c1, the IC50 [1] is reported as over 10 µM, the IC50 [2] is reported as over 10 µM and the IC50 [3] is reported as over 10 µM. It also gave an IC50 [4] of over 10 µM, an IC50 [5] of under 0.0316 µM and a viability, T/C [6] of 81.6%. It also gave a viability, T/C [7] of 88.5%, a viability, T/C [8] of 68.1% and a viability, T/C [9] of 60.7%. It also gave a viability, T/C [10] of 63.6%, a viability, T/C [11] of 65.3% and a viability, T/C [12] of 86.1%. It also gave a viability, T/C [13] of 86.3%, a viability, T/C [14] of 67.4% and a viability, T/C [15] of 53.8%. It also gave a viability, T/C [16] of 66.1%, a viability, T/C [17] of 53.4% and a viability, T/C [18] of 96.2%. The viability, T/C [19] was 80.1%, the viability, T/C [20] was 79.2% and the viability, T/C [21] was 80.9%. The viability, T/C [22] was 55.9%, the viability, T/C [23] was 72% and the viability, T/C [24] was 89.8%. For the same compound, the viability, T/C [25] was 99.2%, the viability, T/C [26] was 112% and the viability, T/C [27] was 76.2%. It also gave a viability, T/C [28] of 72.4%, a viability, T/C [29] of 70.6% and a viability, T/C [30] of 41.5%. It also gave a viability, T/C [31] of 39.6%, a viability, T/C [32] of 41% and a viability, T/C [33] of 35.4%. The viability, T/C [34] was 32.6% and the viability, T/C [35] was 29.1%.

Work on `COc1cc(Nc2ncc3c(n2)-c2ccc(Cl)cc2C(c2c(F)cccc2OC)=NC3)ccc1C(=O)O` + CC(CO)NC(=O)c1cc(-c2ccc(Cl)cc2)nn(-c2cnn(C)c2)c1=O yielded an IC50 [1] of 6.12 µM, an IC50 [2] of over 10 µM and an IC50 [3] of over 10 µM. It also gave an IC50 [4] of over 10 µM, an IC50 [5] of 3.59 µM and a viability, T/C [6] of 77.5%. It also gave a viability, T/C [7] of 73.2%, a viability, T/C [8] of 82.6% and a viability, T/C [9] of 79.4%. For the same compound, the viability, T/C [10] was 58.1%, the viability, T/C [11] was 44% and the viability, T/C [12] was 61.6%. It also gave a viability, T/C [13] of 58%, a viability, T/C [14] of 76.6% and a viability, T/C [15] of 66%. For the same compound, the viability, T/C [16] was 52.5%, the viability, T/C [17] was 44.5% and the viability, T/C [18] was 59.7%. The viability, T/C [19] was 67.1%, the viability, T/C [20] was 72.7% and the viability, T/C [21] was 73.8%. The viability, T/C [22] was 71.5%, the viability, T/C [23] was 47.4% and the viability, T/C [24] was 55.7%. The viability, T/C [25] was 55.4%, the viability, T/C [26] was 60.3% and the viability, T/C [27] was 61.6%. It also gave a viability, T/C [28] of 56.9%, a viability, T/C [29] of 41.8% and a viability, T/C [30] of 66.6%. For the same compound, the viability, T/C [31] was 58.7%, the viability, T/C [32] was 70.2% and the viability, T/C [33] was 54.4%. The viability, T/C [34] was 52.2% and the viability, T/C [35] was 38.9%.
